This is an account of results in paper PMC4903021 (Organic letters, 2016).

For the assay, the target named is T1, CazL (Chaetomium globosum, UniProt Q2GWL0).
T1 sequence (Q2GWL0 1-455): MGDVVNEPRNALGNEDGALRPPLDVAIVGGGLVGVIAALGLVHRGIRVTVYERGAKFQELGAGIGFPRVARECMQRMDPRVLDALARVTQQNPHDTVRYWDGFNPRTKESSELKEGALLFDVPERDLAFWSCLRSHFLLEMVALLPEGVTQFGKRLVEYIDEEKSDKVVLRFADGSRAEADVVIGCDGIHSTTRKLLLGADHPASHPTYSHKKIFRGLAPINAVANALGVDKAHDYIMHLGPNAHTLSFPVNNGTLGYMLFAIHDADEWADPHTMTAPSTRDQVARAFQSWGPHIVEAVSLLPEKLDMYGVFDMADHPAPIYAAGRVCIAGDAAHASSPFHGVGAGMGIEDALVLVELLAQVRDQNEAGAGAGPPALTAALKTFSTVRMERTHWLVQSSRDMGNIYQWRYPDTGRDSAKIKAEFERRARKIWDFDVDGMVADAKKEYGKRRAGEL
Kind of assay: initial velocity kinetics of pyranoquinone formation. The class given is biochemical. To be noted: formation of 5.

The term Km denotes the substrate concentration at which the rate is half of its maximum.

cazaldehyde A [compound 1]: the Km was found to be 73 ± 9.93 µM.
